# Patent publication US9695463B2, “DNA 5-methyl cytosine demethylation activity of vertebrate DNA methyltransferases” (Academia Sinica, priority 2012, dated 2017)
# Columns and labels:
# [1] = system: DNA demethylation activity of porcine sperm nuclear extract; test: In vitro DNA demethylation by porcine sperm nuclear extract (restriction digestion-PCR assay); type: biochemical; settings: for effect on the in vitro DNA demethylation activity of the sperm nuclear extract: 10 mM CaCl2, increasing concentrations of inhibitor (APE-i to 1 mM, 3-AB to 50 mM, THU to 1 mM)
# Experimental: The nuclear extracts were prepared from the porcine sperms and 293T cells, respectively, by a modified method. Briefly, the porcine semen was washed three times by PBS buffer and the sperm pellet isolated with FICOLL®. The pellet was resuspended in a hypotonic buffer (10 mM Tris-HCl, pH7.4, 10 mM NaCl, 10 mM EDTA and EDTA-free protease inhibitors) on ice for 15 minutes. The resuspended sperms were passed through a G21 needle 10 times and then centrifuged at 13,200 rpm at 4° C. for 10 min. The supernatant was removed and the pellet of the nuclei was resuspended in a resuspension buffer (10 mM Tris-HCl, pH7.4, 10 mM NaCl, 1.5 mM, MgCl2 and EDTA-free protease inhibitors), and an equal volume of 1M NaCl was added for 30 min incubation on ice.
# recombinant mouse DNMT3B = target: T1, recombinant mouse DNMT3B (Mus musculus, UniProt O88509); test: Effect of Ca2+, DTT, SAM and H2O2 on the DNA demethylation activity of recombinant DNMT3B (hydrolysis-TLC assay); type: biochemical
# T1 construct: purchased BPS Bioscience; host or cells: recombinant baculovirus-infected Sf9 insect cells
# Experimental: M, mock control without incubation.
# (§1) FIGS. 3A-B show the effects of a reducing condition and SAM on the DNA demethylation and methylation activities of DNMT3B. […] After incubation at 37° C. for 4 h, the DNA products were analyzed by the hydrolysis-TLC assay. The results are quantitatively presented in the histogram. […] After incubation at 37° C. for 4 h, the extents of C methylation of the DNAs from the different reactions were determined by hydrolysis-TLC assay and quantitatively compared in the histogram. Error bars indicate S.D.
# Rx, reactions. […] M, mock control without incubation.
# recombinant DNMT3B = target: T2, recombinant DNMT3B (Mus musculus, UniProt O88509); test: Effect of Ca2+ and DTT on the C to 5-mC methylation reaction of recombinant DNMT3B (hydrolysis-TLC assay); type: biochemical; settings: 40 nM recombinant DNMT3B, unmethylated pMR1-8, 160 μM SAM, 1 mM CaCl2 or 5 mM DTT, 37°C, 4 h
# T2 construct: purchased BPS Bioscience; host or cells: recombinant baculovirus-infected Sf9 insect cells
# Experimental: as §1
# Methylation in vitro of unmodified pMR1-8 plasmid DNA by the DNMTs were carried out and analyzed by the hydrolysis-TLC assay. When needed, 1 mM CaCl2 or 5 mM DTT was also included in the reaction mixture.
# [2] = system: 5-mC-containing double-stranded DNA substrate; test: 5-mC to C conversion by 293T nuclear extracts with exogenously expressed mouse DNMTs (hydrolysis-TLC assay); type: biochemical; settings: 293T nuclear extract with exogenously expressed mouse enzyme, buffer B, 10 mM Ca2+
# [3] = system: 5-mC-containing DNA substrate; test: 5-mC to C conversion by recombinant DNMTs (hydrolysis-TLC assay); settings: 40 nM recombinant DNMT3B, 1 mM CaCl2, 37°C, 2 h (reaction 1)
compound,measurement,setting,value
NC(=O)c1cccc(N)c1 [3-aminobenzamide],effect on the in vitro DNA demethylation activity of the sperm nuclear extract,[1],little effect
O=C(O)c1cc2cccc([N+](=O)[O-])c2[nH]1 [CRT0044876],effect on the in vitro DNA demethylation activity of the sperm nuclear extract,[1],little effect
"C[S+](CC[C@H](N)C(=O)O)C[C@H]1O[C@@H](n2cnc3c(N)ncnc32)[C@H](O)[C@@H]1O (some centres unmarked) [SAM, S-adenosylmethionine]",C converted back to 5-mC,"recombinant mouse DNMT3B; 160 μM SAM added after reaction 1, continued 1 h incubation (reaction 2)",more than 60%
OO [H2O2],effect on the enzyme activity of DNMT3B after SAM (in words),"recombinant mouse DNMT3B; 1 mM H2O2 added after reaction 2, another 2 h (reaction 3)",led to the switch of the enzyme activity of DNMT3B from methylation to demethylation again
"O[C@H](CS)[C@H](O)CS (racemic) [DTT, dithiothreitol]",effect on the 5-C methylation reaction of DNMTs (in words),recombinant DNMT3B,nor was it affected
"DNMT3B: mouse DNA methyltransferase 3B, expressed in 293T nuclear extract or recombinant from BPS Bioscience (SEQ ID NO: 9)",5-mC residues on the DNA substrate from which the 5-methyl group was removed,[2],approximately 30%
same,5-mC on the DNA substrate demethylated at the end of the first reaction,[3],approximately 60%
"[Ca+2].[Cl-].[Cl-] [Ca^2+, CaCl2]",effect on the 5-C methylation reaction of DNMTs (in words),recombinant DNMT3B,did not require
same,reduction of the extent of DNA methylation,"[1]; 1-10 mM Ca2+, fully methylated pMR1-8 plasmid, 37°C, 2 h",20-50%
O=C1NC(O)CCN1[C@@H]1O[C@H](CO)[C@@H](O)[C@H]1O (some centres unmarked) [tetrahydrouridine],effect on the in vitro DNA demethylation activity of the sperm nuclear extract,[1],little effect
DNMT1: mouse DNA methyltransferase 1 exogenously expressed in 293T nuclear extract (SEQ ID NO: 5),5-mC residues on the DNA substrate from which the 5-methyl group was removed,[2],approximately 30%
